Measured values from patent US20090247404A1, “METHOD FOR IMPROVING HARVESTABILITY OF CROPS” (priority 2006, published 2009).

How the values were obtained:
Type in all cases: in vivo
[1] = system: cotton (GOSHI, Gossypium hirsutum L.); assay: Test B2: field trial, preharvest application of harvest aids alone and with Compound 4 to cotton (cv. DP 117BRIIRF); details: for inhibition at 5 g/ha / inhibition at 10 g/ha / inhibition at 20 g/ha / inhibition at 1262 g/ha / inhibition at 421 g/ha: Gossypium hirsutum, 336 h
Method: A field trial was conducted to evaluate the effects of mixtures of Compound 4 with commercial harvest aids on cotton (GOSHI, Gossypium hirsutum L.). Delta and Pine Land Co. cotton seeds (cv. ‘DP 117BRIIRF’) were planted in mid spring season, 2.0-cm deep in a clay soil. Plots were 12.19 m long by 3.86 m wide with rows spaced 96.5 cm apart. The field was managed using conventional tillage practices, and applications of herbicides and insecticides were used to maintain a healthy crop. The plots were arranged in a randomized complete block design with each treatment being replicated four times. Treatments were applied preharvest over the top of the crop in late summer, when approximately 65% of the bolls had opened, using a tractor-mounted sprayer delivering a spray volume of 140.3 L/ha at a pressure of 193 kPa. Treatments consisted of the commercial harvest aids tribufos, ethephon, and ethephon+AMADS alone and in combination with Compound 4, dissolved or suspended in water. Plants were evaluated for harvest aid effects including defoliation and regrowth inhibition at 4, 7, and 14 DAA. Individual results were recorded and data reported as the means of the three replicates.
(§1) Results for Tests A, B1 and B2 are given in Table A, B1 and B2 respectively. Plants were visually evaluated for harvest aid effects of boll opening, defoliation, desiccation, and whole plant (basal and terminal) regrowth inhibition. “State of Defoliation (%)” represents a visual rating at a given DAA of the overall reduction in foliage on treated plants in a plot. It is based on a scale of 0 to 100%, where 0 represents an amount of foliage similar to control plants, and 100 indicates no leaves present. Plant regrowth assessments at a given DAA were made relative to appropriate controls after effects of defoliation were observed. Regrowth of the basal (“plant stalk”, below the top 15.3 cm of the plants) and terminal (“plant terminal”, top 15.3 cm of the plants) portions of the plants were separately evaluated on a visual rating scale of 0 to 100%, where 0 indicates no regrowth, and 100 indicates complete regrowth. The regrowth evaluations involved overall assessment of renewed or continued growth and development, which included: node and internodal development and elongation, and leaf formation, development and growth. These regrowth evaluations were recorded as “Regrowth %” and subsequently converted in the tables to “Regrowth Inhibition (%)”, which was calculated as 100%−YT, where YT equals the mean Regrowth % of three replicates for a respective treatment.

[2] = system: cotton (GOSHI, Gossypium hirsutum L.); assay: Test B1: field trial, preharvest application of harvest aids alone and with Compound 4 to cotton (cv. DP 434); details: for inhibition at 5 g/ha / inhibition at 10 g/ha / inhibition at 20 g/ha / inhibition at 1262 g/ha / inhibition at 421 g/ha: Gossypium hirsutum
Method: A field trial was conducted to evaluate the effects of mixtures of Compound 4 with commercial harvest aids on cotton (GOSHI, Gossypium hirsutum L.). Delta and Pine Land Co. cotton seeds (cv. ‘DP 434’) were planted in mid spring season, 3.8-cm deep in a fine-texture loam soil comprising 40% sand, 36% silt, and 24% clay. Soil organic matter was 1.8%; pH was 6.6. Plots were 9.1 m long by 3.0 m wide with rows spaced 96.5 cm apart. Seeds were spaced 10.2 cm apart within the rows. The field was managed using conventional tillage practices, and applications of herbicides and insecticides were used to maintain a healthy crop. The plots were arranged in a randomized complete block design with each treatment being replicated four times. Treatments were applied preharvest over the top of the crop in late summer, when approximately 65% of the bolls had opened, using a tractor-mounted sprayer delivering a spray volume of 140 L/ha at a pressure of 241 kPa. Treatments consisted of the commercial harvest aids tribufos, ethephon, and ethephon+AMADS alone and in combination with Compound 4, dissolved or suspended in water. Plants were evaluated for harvest aid effects including defoliation and regrowth inhibition at 4, 7, 14, and/or 22 days after application (DAA). Individual results were recorded and data reported as the means of the three replicates.
as §1

[3] = system: cotton (GOSHI, Gossypium hirsutum L.); assay: Test A: field trial, preharvest application of harvest aids alone and with Compound 4 to cotton (cv. Fibermax FM 989 RR); details: for Boll Opening (%) / Desiccation (%) / State of Defoliation (%): 841 g a.i./ha
Method: A field trial was conducted to evaluate the effects of mixtures of Compound 4 with commercial harvest aids on cotton (GOSHI, Gossypium hirsutum L.). Cotton seeds (cv. ‘Fibermax FM 989 RR’) were planted in mid spring season, 3.8 cm deep in a clay soil having 1.8% organic matter and a pH of 6.8. Plots were 9 m long by 3 m wide with rows spaced 96.5 cm apart. Seeds were spaced 10.2 cm apart within the rows. The field was managed using conventional tillage practices, and applications of herbicides and insecticides were used to maintain a healthy crop. The plots were arranged in a randomized complete block design with each treatment being replicated three times. Treatments were applied preharvest over the top of the crop in late summer, when approximately 65% of the bolls had opened, using a backpack sprayer delivering a spray volume of 140 L/ha using a pressure of 276 kPa. Treatments consisted of the commercial harvest aids tribufos and ethephon+AMADS alone and in combination with Compound 4, dissolved or suspended in water. The effects on the treated plants and untreated controls were recorded 4, 11 and 21 days after application. Plants were visually evaluated for harvest aid effects of boll opening, defoliation, desiccation, and whole plant (basal and terminal) regrowth inhibition. Results were calculated as the mean of the three replicates, based on a scale of 0 to 100 where 0 is no effect and 100 is complete expression of the effect.
as §1

[4] = plant terminal and plant stalk, 14 DAA
[5] = treatments including Compound 4

Compound: COC(=O)c1nc(C2CC2)nc(N)c1Cl [Compound 4, methyl 6-amino-5-chloro-2-cyclopropyl-4-pyrimidinecarboxylate]
- State of Defoliation (%) ([1]; 5 g a.i./ha, 4 DAA): 3%
- State of Defoliation (%) ([1]; 5 g a.i./ha, 7 DAA): 4%
- State of Defoliation (%) ([1]; 5 g a.i./ha, 14 DAA): 10%
- State of Defoliation (%) ([1]; 10 g a.i./ha, 4 DAA): 3%
- State of Defoliation (%) ([1]; 10 g a.i./ha, 7 DAA): 4%
- State of Defoliation (%) ([1]; 10 g a.i./ha, 14 DAA): 11%
- State of Defoliation (%) ([1]; 20 g a.i./ha, 4 DAA): 4%
- State of Defoliation (%) ([1]; 20 g a.i./ha, 7 DAA): 9%
- State of Defoliation (%) ([1]; 20 g a.i./ha, 14 DAA): 15%
- inhibition at 5 g/ha ([1]; 5 g a.i./ha, 14 DAA, read-out: Plant Stalk (Below 15.3-cm) Regrowth Inhibition (%)): 100%
- inhibition at 5 g/ha ([1]; 5 g a.i./ha, 14 DAA, read-out: Plant Terminal (Top 15.3-cm) Regrowth Inhibition (%)): 97%
- inhibition at 10 g/ha ([1]; 10 g a.i./ha, 14 DAA, read-out: Plant Stalk (Below 15.3-cm) Regrowth Inhibition (%)): 100%
- inhibition at 10 g/ha ([1]; 10 g a.i./ha, 14 DAA, read-out: Plant Terminal (Top 15.3-cm) Regrowth Inhibition (%)): 100%
- inhibition at 20 g/ha ([1]; 20 g a.i./ha, 14 DAA, read-out: Plant Stalk (Below 15.3-cm) Regrowth Inhibition (%)): 100%
- inhibition at 20 g/ha ([1]; 20 g a.i./ha, 14 DAA, read-out: Plant Terminal (Top 15.3-cm) Regrowth Inhibition (%)): 100%
- regrowth inhibition, addition of Compound 4 compared to ethephon, ethephon+AMADS or tribufos alone [1, 4]: dramatically increased
- inhibition of basal and terminal regrowth [1, 5]: effective for inhibiting both basal and terminal regrowth
- State of Defoliation (%) ([2]; 5 g a.i./ha, 4 DAA): 13%
- State of Defoliation (%) ([2]; 5 g a.i./ha, 7 DAA): 18%
- State of Defoliation (%) ([2]; 5 g a.i./ha, 14 DAA): 23%
- State of Defoliation (%) ([2]; 10 g a.i./ha, 4 DAA): 8%
- State of Defoliation (%) ([2]; 10 g a.i./ha, 7 DAA): 18%
- State of Defoliation (%) ([2]; 10 g a.i./ha, 14 DAA): 21%
- State of Defoliation (%) ([2]; 20 g a.i./ha, 4 DAA): 13%
- State of Defoliation (%) ([2]; 20 g a.i./ha, 7 DAA): 24%
- State of Defoliation (%) ([2]; 20 g a.i./ha, 14 DAA): 23%
- inhibition at 5 g/ha ([2]; 336 h, 5 g a.i./ha, 14 DAA, read-out: Plant Stalk (Below 15.3-cm) Regrowth Inhibition (%)): 100%
- inhibition at 5 g/ha ([2]; 336 h, 5 g a.i./ha, 14 DAA, read-out: Plant Terminal (Top 15.3-cm) Regrowth Inhibition (%)): 100%
- inhibition at 10 g/ha ([2]; 336 h, 10 g a.i./ha, 14 DAA, read-out: Plant Stalk (Below 15.3-cm) Regrowth Inhibition (%)): 100%
- inhibition at 10 g/ha ([2]; 336 h, 10 g a.i./ha, 14 DAA, read-out: Plant Terminal (Top 15.3-cm) Regrowth Inhibition (%)): 100%
- inhibition at 20 g/ha ([2]; 336 h, 20 g a.i./ha, 14 DAA, read-out: Plant Stalk (Below 15.3-cm) Regrowth Inhibition (%)): 100%
- inhibition at 20 g/ha ([2]; 336 h, 20 g a.i./ha, 14 DAA, read-out: Plant Terminal (Top 15.3-cm) Regrowth Inhibition (%)): 100%
- inhibition at 5 g/ha ([2]; 528 h, 5 g a.i./ha, 22 DAA, read-out: Plant Stalk (Below 15.3-cm) Regrowth Inhibition (%)): 100%
- inhibition at 10 g/ha ([2]; 528 h, 10 g a.i./ha, 22 DAA, read-out: Plant Stalk (Below 15.3-cm) Regrowth Inhibition (%)): 100%
- inhibition at 20 g/ha ([2]; 528 h, 20 g a.i./ha, 22 DAA, read-out: Plant Stalk (Below 15.3-cm) Regrowth Inhibition (%)): 100%
- regrowth inhibition, addition of Compound 4 compared to ethephon, ethephon+AMADS or tribufos alone [2, 4]: dramatically increased
- inhibition of basal and terminal regrowth [2, 5]: effective for inhibiting both basal and terminal regrowth
- desiccation, combination with Compound 4 compared to ethephon+AMADS or tribufos alone ([3]; 11 days after application): increased
- defoliation, combination with Compound 4 compared to ethephon+AMADS or tribufos alone ([3]; 21 days after application): dramatically increased
- regrowth inhibition, combination with Compound 4 compared to ethephon+AMADS or tribufos alone ([3]; 21 days after application): dramatically increased
- boll opening effects of the commercial harvest aids in combination with Compound 4 ([3]; compared to the untreated plants): did not interfere
- inhibition of basal and terminal regrowth [3, 5]: effective for inhibiting both basal and terminal regrowth

Compound: O=P(O)(O)CCCl [Ethephon, reference compound]
- State of Defoliation (%) ([1]; 1262 g a.i./ha, 4 DAA): 58%
- State of Defoliation (%) ([1]; 1262 g a.i./ha, 7 DAA): 63%
- State of Defoliation (%) ([1]; 1262 g a.i./ha, 14 DAA): 48%
- inhibition at 1262 g/ha ([1]; 1262 g a.i./ha, 14 DAA, read-out: Plant Stalk (Below 15.3-cm) Regrowth Inhibition (%)): 80%
- inhibition at 1262 g/ha ([1]; 1262 g a.i./ha, 14 DAA, read-out: Plant Terminal (Top 15.3-cm) Regrowth Inhibition (%)): 60%
- State of Defoliation (%) ([2]; 1262 g a.i./ha, 4 DAA): 54%
- State of Defoliation (%) ([2]; 1262 g a.i./ha, 7 DAA): 73%
- State of Defoliation (%) ([2]; 1262 g a.i./ha, 14 DAA): 79%
- inhibition at 1262 g/ha ([2]; 336 h, 1262 g a.i./ha, 14 DAA, read-out: Plant Stalk (Below 15.3-cm) Regrowth Inhibition (%)): 90%
- inhibition at 1262 g/ha ([2]; 336 h, 1262 g a.i./ha, 14 DAA, read-out: Plant Terminal (Top 15.3-cm) Regrowth Inhibition (%)): 75%
- inhibition at 1262 g/ha ([2]; 528 h, 1262 g a.i./ha, 22 DAA, read-out: Plant Stalk (Below 15.3-cm) Regrowth Inhibition (%)): 22%

Compound: CCCCSP(=O)(SCCCC)SCCCC [Tribufos, S,S,S-tributylphosphorotrithioate, reference compound]
- State of Defoliation (%) ([1]; 421 g a.i./ha, 4 DAA): 50%
- State of Defoliation (%) ([1]; 421 g a.i./ha, 7 DAA): 56%
- State of Defoliation (%) ([1]; 421 g a.i./ha, 14 DAA): 53%
- inhibition at 421 g/ha ([1]; read-out: Plant Stalk (Below 15.3-cm) Regrowth Inhibition (%)): 81%
- inhibition at 421 g/ha ([1]; read-out: Plant Terminal (Top 15.3-cm) Regrowth Inhibition (%)): 44%
- State of Defoliation (%) ([2]; 421 g a.i./ha, 4 DAA): 49%
- State of Defoliation (%) ([2]; 421 g a.i./ha, 7 DAA): 76%
- State of Defoliation (%) ([2]; 421 g a.i./ha, 14 DAA): 81%
- inhibition at 421 g/ha ([2]; 336 h, read-out: Plant Stalk (Below 15.3-cm) Regrowth Inhibition (%)): 84%
- inhibition at 421 g/ha ([2]; 336 h, read-out: Plant Terminal (Top 15.3-cm) Regrowth Inhibition (%)): 47%
- inhibition at 421 g/ha ([2]; 528 h, read-out: Plant Stalk (Below 15.3-cm) Regrowth Inhibition (%)): 29%
- Boll Opening (%) ([3]; 4 DAA): 70%
- Desiccation (%) ([3]; 4 DAA): 32%
- State of Defoliation (%) ([3]; 4 DAA): 68%
- Boll Opening (%) ([3]; 11 DAA): 78%
- Desiccation (%) ([3]; 11 DAA): 8%
- State of Defoliation (%) ([3]; 11 DAA): 80%
- State of Defoliation (%) ([3]; 21 DAA): 35%
- inhibition at 841 g/ha ([3]; Gossypium hirsutum, 504 h, read-out: Regrowth Inhibition (%)): 25%
